Source: US6884810B2, “Benzimidazole derivatives” (Zeria Pharmaceutical Co., Ltd., priority 2001, dated 2005)

Tested on: gastric acid secreted under stimulation with histamine
Assay: Gastric acid secretion inhibition action, histamine-stimulated, acute Fistula method
Type: in vivo, Sprague-Dawley (SD) rats
Details: SD rats, administered in the duodenum, histamine 8 mg/kg/h, total acid discharge at 3, 4 and 5 hours, Probit method; for ED50: Rattus norvegicus
Description: (Gastric Acid Secretion Inhibition Action)
(1) Test Animals Employed were Sprague-Dawley (SD) Rats (7 Weeks Old, Male) Purchased from Charles River Japan, Inc. Before the Test, the Rats Were Fed for 5 Days or More.
Each test drug was suspended in, or dissolved in, 0.5% sodium carboxymethylcellulose solution, whereby a suspension or solution was prepared so as to attain 2.5 mL/kg.
(2) Measurement of Gastric Acid Secretion
The amount of gastric acid secreted under stimulation with histamine was measured on the rats fasted for 18 hours by use of the acute Fistula method as described by Hiramatsu et al. (Dig. Dis. Sci.,39, 689-697(1994)). Briefly, each rat was etherized lightly, and then a winged tubular needle filled with 3.8% citric acid solution was indwelled in the tail vein of the rat. The abdomen of the rat was opened, and the pyloric part of the stomach was ligated. Subsequently, a small hole was made in the duodenum, and the abdomen of the rat was closed with a feeding tube filled with saline indwelled. The inside of the stomach was washed with saline, a polyethylene-made Fistula tube (inner diameter: 4 mm) was set in the anterior stomach, and the cut portion of the anterior stomach was ligated and secured. The stomach and the duodenum were returned to the abdominal cavity, with the Fistula tube and the feeding tube exposed outside. The rat was placed in a Ballman cage II. Histamine was continuously administered through the winged injection needle which had been indwelled in the tail vein in advance (8 mg/kg/h, 1.38 mL/h). 15 Minutes thereafter, gastric juice of the rat was collected. Subsequently, collection of gastric juice was performed every one hour. Each time, the amount of the collected gastric juice was recorded, followed by titration with NaOH (0.1 mol/L) up to the end point pH 7.0. From the volume consumed for titration, acidity was calculated. The acid discharge amount was calculated as a product of the amount of the gastric juice and the acidity. Before starting the test, the rats were grouped so that the intra-group total amount of the gastric juice samples initially collected was the same between groups. Thereafter, each test drug was administered (2.5 mL/kg) in the duodenum through a feeding tube which had been attached to the duodenum in advance. To each rat of a control group, 0.5% Na-CMC solution was administered.
(3) Analysis of the Results
The data as obtained above are shown by way of mean±standard error. Total amount of acid discharge was obtained through summation of the amounts of acid discharge at three points in time; i.e., 3, 4 and 5 hours after initial collection of gastric juice. Percent inhibition of each group was computed from the total acid discharge amount of the control group and that of each group. On the basis of the percent inhibition calculated for each group, 50% effective dose (ED50) was computed by use of the Probit method.

**Q.** How did the ED50 turn out when `[O-][S+](Cc1cc(OCCCC(F)(F)F)ccn1)c1nc2ccccc2[nH]1` (stereo not drawn) [Example 9(3), 2-[4-(4,4,4-trifluorobutoxy)pyridin-2-yl-methanesulfinyl]-1H-benzimidazole] was run?
**A.** The ED50 was 0.32 mg/kg.

**Q.** How did the ED50 turn out when `COCCCOc1ccnc(C[S+]([O-])c2nc3ccccc3[nH]2)c1C` (stereo not drawn) [rabeprazole, reference compound] was run?
**A.** The ED50 was 2.5 mg/kg.

**Q.** How did the ED50 turn out when `COc1ccc2nc([S@@+]([O-])Cc3ncc(C)c(OC)c3C)[nH]c2c1` [esomeprazole, reference compound] was run?
**A.** Its ED50 is 2.9 mg/kg.

**Q.** With `Cc1c(OCC(F)(F)F)ccnc1C[S+]([O-])c1nc2ccccc2[nH]1` (stereo not drawn) [lansoprazole, reference compound] as the compound, how does the ED50 read?
**A.** The ED50 was 1.1 mg/kg.

**Q.** How did the ED50 turn out when `COc1c(OCCOCC(F)(F)F)ccnc1C[S+]([O-])c1nc2ccccc2[nH]1` (stereo not drawn) [Example 2(2), 2-{3-methoxy-4-[2-(2,2,2-trifluoroethoxy)ethoxy]pyridin-2-yl-methylsulfinyl}-1H-benzimidazole] was run?
**A.** Its ED50 is 1.9 mg/kg.

**Q.** `[O-][S+](Cc1cc(OCCCC(F)(F)F)ccn1)c1nc2ccccc2[nH]1` (single isomer, unassigned; (-)) [Example 10(2), (−)-2-[4-(4,4,4-trifluorobutoxy)pyridin-2-yl-methanesulfinyl]-1H-benzimidazole] was tested. Which ED50 did it give?
**A.** Its ED50 is 0.97 mg/kg.

**Q.** How did the ED50 turn out when `COc1ccnc(C[S+]([O-])c2nc3ccc(OC(F)F)cc3[nH]2)c1OC` (stereo not drawn) [pantoprazole, reference compound] was run?
**A.** The ED50 was 0.34 mg/kg.

**Q.** `COc1c(OCCOCC(F)(F)F)ccnc1C[S+]([O-])c1nc2ccccc2[nH]1` (single isomer, unassigned; (+)) [Example 3(2), (+)-2-{3-methoxy-4-[2-(2,2,2-trifluoroethoxy)ethoxy]pyridin-2-yl-methylsulfinyl}-1H-benzimidazole] was tested. Which ED50 did it give?
**A.** The ED50 was 2.2 mg/kg.

**Q.** Which ED50 does the source give for `COc1ccc2[nH]c([S+]([O-])Cc3ncc(C)c(OC)c3C)nc2c1` (stereo not drawn) [omeprazole, reference compound] here?
**A.** The ED50 was 3.6 mg/kg.

**Q.** For `COc1c(OCCCC(F)(F)F)ccnc1C[S+]([O-])c1nc2ccccc2[nH]1` (single isomer, unassigned; (-)) [Example 6(1), (−)-2-[3-methoxy-4-(4,4,4-trifluorobutoxy)pyridin-2-yl-methanesulfinyl]-1H-benzimidazole], which “Gastric-acid secretion inhibition action [ED50 (mg/kg)]” value is on record?
**A.** The value was 1.4 mg/kg.

**Q.** How did the ED50 turn out when `COc1c(OCCCC(F)(F)F)ccnc1C[S+]([O-])c1nc2ccccc2[nH]1` (stereo not drawn) [Example 1(2), 2-[3-methoxy-4-(4,4,4-trifluorobutoxy)pyridin-2-yl-methylsulfinyl]-1H-benzimidazole] was run?
**A.** Its ED50 is 1.3 mg/kg.

**Q.** With `[O-][S+](Cc1cc(OCCOCC(F)(F)F)ccn1)c1nc2ccccc2[nH]1` (single isomer, unassigned; (-)) [Example 13(3), (−)-2-{4-[2-(2,2,2-trifluoroethoxy)ethoxy]pyridin-2-yl-methanesulfinyl}-1H-benzimidazole] as the compound, how does the ED50 read?
**A.** Its ED50 is 0.59 mg/kg.
